Results from ChEMBL document CHEMBL1201862, “PubChem BioAssay data set” (2004).
Calls of active or inactive are those of the source.

Experiments:
[1] = target: Glyceraldehyde-3-phosphate dehydrogenase (Homo sapiens, UniProt P04406)
[2] = target: Heat shock 70 kDa protein 1A (Homo sapiens, UniProt P0DMV8); experiment: Hsp70 inhibitors, SAR follow-up, biochemical, fluorescence polarization (AID 1072)
[3] = target: Heat shock cognate 71 kDa protein (Homo sapiens, UniProt P11142); experiment: In Vitro Hsc70 Dose Response Fluorescence Polarization Assay. [Related pubchem assays: 1072 ]
[4] = target: T1, Tyrosine-protein phosphatase non-receptor type 7 (Homo sapiens, UniProt P35236); type: functional
T1 sequence (P35236 whole entry): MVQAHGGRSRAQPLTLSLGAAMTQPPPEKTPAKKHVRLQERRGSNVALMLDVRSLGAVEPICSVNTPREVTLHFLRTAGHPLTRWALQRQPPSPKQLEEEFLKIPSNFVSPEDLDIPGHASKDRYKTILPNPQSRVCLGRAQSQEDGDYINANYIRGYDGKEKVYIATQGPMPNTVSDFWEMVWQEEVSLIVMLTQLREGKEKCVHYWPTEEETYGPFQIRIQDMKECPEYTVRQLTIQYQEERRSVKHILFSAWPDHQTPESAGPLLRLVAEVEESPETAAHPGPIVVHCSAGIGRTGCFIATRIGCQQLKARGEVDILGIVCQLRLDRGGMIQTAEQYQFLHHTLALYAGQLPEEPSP

[5] = target: T2, Dual specificity protein phosphatase 6 (Rattus norvegicus, UniProt Q64346)
T2 sequence (Q64346 whole entry): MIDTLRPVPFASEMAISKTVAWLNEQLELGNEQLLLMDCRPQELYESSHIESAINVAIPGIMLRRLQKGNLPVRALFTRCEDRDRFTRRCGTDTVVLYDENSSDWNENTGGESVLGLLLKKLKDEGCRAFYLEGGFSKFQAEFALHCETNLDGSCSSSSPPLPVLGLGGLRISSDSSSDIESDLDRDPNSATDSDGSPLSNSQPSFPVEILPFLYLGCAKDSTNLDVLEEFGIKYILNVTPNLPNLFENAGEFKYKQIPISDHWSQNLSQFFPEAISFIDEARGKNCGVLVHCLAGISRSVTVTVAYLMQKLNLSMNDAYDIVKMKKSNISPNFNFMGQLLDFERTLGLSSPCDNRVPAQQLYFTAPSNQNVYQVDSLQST

[6] = target: T2, Dual specificity protein phosphatase 6; type: functional
[7] = target: Mothers against decapentaplegic homolog 3 (Homo sapiens, UniProt P84022); experiment: Smad3 binding inhibitors, lysate ELISA, dose response, cell lysate, secondary confirmation, chemiluminescent ELISA, HEK293 lysate (AID 1058); type: functional
[8] = Luminescence-based counterscreen assay for KLF5 inhibitors: dose response cell-based high throughput screening assay to identify cytotoxic compounds using the IEC-6 intestinal epithelial cell line. [Related pubchem assays: 1700 (Primary screen.), 1834 (Confirmation screen.), 1858 (Summary AID.), 1905 (Counterscreen.)]; type: functional
[9] = THP-1 cell cytotoxicity, dose response, cytotoxicity control for non-replicating M. tuberculosis project (AID 489025); type: functional
[10] = test system: INS1; experiment: beta cell apoptosis inhibitors, cytokine rescue, dose response, luminescence, retest (AID 449756); type: functional, cell-based; conditions: Rattus norvegicus;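 also: cell death triggered by IL-1 beta plus TNF-alpha plus IFN-gamma mixture; protective hits raise ATP signal compared with cytokine alone wells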
[11] = Luminescence Cell-Based Dose Response HTS to Identify Inhibitors of 5'UTR Stem-Loop Driven Prion Protein mRNA Translation in H4 Neuroglioblastoma Cells. [Related pubchem assays: 1827 (Project Summary), 1813 (Primary HTS)]; type: functional
[12] = target: T3, Microphthalmia-associated transcription factor (Homo sapiens, UniProt O75030); experiment: TRPM1 promoter luciferase signal decrease, dose response, MITF inhibitor project, cell-based, SK-MEL-5, cherry-picked, set 3 (AID 493073); type: functional
T3 sequence (O75030 whole entry): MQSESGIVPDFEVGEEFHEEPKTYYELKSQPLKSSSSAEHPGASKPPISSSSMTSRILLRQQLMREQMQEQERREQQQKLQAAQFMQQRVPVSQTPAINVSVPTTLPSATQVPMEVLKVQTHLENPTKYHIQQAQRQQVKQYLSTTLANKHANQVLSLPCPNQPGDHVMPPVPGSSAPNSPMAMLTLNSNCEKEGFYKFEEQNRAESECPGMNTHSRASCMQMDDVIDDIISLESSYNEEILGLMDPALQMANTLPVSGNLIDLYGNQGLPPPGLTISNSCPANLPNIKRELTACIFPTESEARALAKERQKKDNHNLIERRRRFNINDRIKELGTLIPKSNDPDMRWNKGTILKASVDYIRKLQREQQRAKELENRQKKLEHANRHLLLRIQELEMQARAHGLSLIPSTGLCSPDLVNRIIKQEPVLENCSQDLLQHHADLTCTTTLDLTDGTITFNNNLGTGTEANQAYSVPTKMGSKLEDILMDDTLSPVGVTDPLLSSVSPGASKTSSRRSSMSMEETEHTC

[13] = cytotoxicity in HEK-293T cells, dose response, cytotoxicity control for TCR NF-kB inhibitor project, luminescence, T-cell screen hits (AID 489026); type: functional, cell-based;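 also: cells exposed to compound about 14 hours before the viability readout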
[14] = cells; type: functional, cell-based
[15] = cells; type: functional, cell-based; remark: listed apart in the source
[16] = test system: HEK293; experiment: inhibitors of LMP1-driven NF-kB reporter, dose response, cell-based, HEK293, luciferase, cherry-pick (AID 588343); type: functional; conditions: Homo sapiens
[17] = Vero E6 cell cytotoxicity, dose response, cytotoxicity control for non-replicating M. tuberculosis project, secondary assay (AID 492998); type: functional, VeroE6; conditions: Vero C1008
[18] = HepG2 cell cytotoxicity, dose response, cytotoxicity control for non-replicating M. tuberculosis project (AID 489018); type: functional; conditions: Mycobacterium tuberculosis
[19] = target: Cytochrome P450 2C9 (Homo sapiens, UniProt P11712); conditions: Potency
Sequence of Cytochrome P450 2C9 (P11712 whole entry): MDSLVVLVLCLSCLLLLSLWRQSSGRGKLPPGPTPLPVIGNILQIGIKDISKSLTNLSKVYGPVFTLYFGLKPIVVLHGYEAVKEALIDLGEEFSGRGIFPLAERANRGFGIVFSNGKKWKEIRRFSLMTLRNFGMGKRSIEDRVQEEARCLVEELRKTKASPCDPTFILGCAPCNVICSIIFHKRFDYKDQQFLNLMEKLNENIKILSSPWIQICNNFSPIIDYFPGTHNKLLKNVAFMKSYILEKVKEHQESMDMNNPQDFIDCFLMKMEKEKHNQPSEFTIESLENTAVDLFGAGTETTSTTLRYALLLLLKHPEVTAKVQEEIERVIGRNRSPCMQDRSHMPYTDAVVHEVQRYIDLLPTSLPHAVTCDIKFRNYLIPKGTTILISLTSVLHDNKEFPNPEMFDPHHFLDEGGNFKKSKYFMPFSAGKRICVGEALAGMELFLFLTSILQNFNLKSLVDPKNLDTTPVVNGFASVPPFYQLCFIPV

Sequence of Glyceraldehyde-3-phosphate dehydrogenase (P04406 whole entry): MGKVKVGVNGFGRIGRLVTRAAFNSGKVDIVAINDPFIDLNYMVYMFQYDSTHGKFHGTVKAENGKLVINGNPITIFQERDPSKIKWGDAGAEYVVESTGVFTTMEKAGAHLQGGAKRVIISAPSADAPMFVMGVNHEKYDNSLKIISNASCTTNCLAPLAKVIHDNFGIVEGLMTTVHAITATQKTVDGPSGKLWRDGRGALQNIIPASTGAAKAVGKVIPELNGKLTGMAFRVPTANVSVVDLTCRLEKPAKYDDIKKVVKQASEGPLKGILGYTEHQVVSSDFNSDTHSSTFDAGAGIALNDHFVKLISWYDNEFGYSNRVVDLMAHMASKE
Sequence of Heat shock cognate 71 kDa protein (P11142 whole entry): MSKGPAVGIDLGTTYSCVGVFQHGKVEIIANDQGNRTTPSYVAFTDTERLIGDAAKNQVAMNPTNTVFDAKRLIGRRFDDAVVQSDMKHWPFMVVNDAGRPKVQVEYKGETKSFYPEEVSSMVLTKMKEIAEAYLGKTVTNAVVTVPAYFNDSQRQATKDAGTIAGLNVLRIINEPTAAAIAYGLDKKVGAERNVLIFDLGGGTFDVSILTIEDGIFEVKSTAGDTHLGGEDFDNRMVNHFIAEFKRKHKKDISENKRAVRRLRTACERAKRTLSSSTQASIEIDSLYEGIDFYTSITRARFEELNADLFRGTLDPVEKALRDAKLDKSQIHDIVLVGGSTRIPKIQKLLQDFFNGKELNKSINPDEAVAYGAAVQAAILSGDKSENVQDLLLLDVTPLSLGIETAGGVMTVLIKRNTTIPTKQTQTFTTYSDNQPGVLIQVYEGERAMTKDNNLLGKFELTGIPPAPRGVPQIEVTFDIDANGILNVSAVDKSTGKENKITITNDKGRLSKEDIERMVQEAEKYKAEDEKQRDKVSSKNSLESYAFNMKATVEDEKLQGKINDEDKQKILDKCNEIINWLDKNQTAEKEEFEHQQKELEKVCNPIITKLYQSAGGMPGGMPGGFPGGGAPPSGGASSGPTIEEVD
Sequence of Heat shock 70 kDa protein 1A (P0DMV8 whole entry): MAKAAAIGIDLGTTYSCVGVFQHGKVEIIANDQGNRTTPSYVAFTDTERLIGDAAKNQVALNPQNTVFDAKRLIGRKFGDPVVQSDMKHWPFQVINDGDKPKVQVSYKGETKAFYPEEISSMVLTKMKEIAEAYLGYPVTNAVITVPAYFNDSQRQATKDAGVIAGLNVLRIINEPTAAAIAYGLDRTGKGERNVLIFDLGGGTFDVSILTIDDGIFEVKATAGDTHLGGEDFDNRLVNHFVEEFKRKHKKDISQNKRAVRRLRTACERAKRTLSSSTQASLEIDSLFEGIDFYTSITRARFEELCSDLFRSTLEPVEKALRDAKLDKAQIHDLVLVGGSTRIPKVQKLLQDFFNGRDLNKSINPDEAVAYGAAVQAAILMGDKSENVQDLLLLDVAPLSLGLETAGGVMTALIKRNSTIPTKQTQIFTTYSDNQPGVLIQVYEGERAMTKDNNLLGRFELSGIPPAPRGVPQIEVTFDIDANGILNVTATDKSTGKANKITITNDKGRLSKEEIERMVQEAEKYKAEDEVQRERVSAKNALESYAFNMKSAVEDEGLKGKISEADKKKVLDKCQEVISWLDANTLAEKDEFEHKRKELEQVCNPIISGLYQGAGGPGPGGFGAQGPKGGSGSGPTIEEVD
Sequence of Mothers against decapentaplegic homolog 3 (P84022 whole entry): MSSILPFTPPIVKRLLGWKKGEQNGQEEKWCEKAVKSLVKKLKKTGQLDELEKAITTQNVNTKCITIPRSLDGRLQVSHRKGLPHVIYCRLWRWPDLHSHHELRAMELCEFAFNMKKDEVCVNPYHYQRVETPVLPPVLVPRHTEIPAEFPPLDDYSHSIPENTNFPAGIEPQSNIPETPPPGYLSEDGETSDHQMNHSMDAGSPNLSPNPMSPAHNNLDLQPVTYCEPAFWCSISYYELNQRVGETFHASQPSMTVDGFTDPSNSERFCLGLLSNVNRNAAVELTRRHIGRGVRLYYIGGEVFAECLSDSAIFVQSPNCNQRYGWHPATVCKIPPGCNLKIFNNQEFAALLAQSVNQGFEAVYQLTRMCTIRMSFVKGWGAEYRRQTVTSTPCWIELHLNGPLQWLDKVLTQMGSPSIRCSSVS

Q: What does the source list for `CCCCOC(=O)c1ccc2c(c1)C1C=CCC1C(C(=O)O)N2` (centres undefined)?
A: IC50 [1]: 76.6 µM (active); IC50 [2]: 63.3 µM (active); IC50 [3]: > 100 µM (not active); IC50 [4]: 10.4 µM (active); IC50 [5]: 41.8 µM (active); IC50 [6]: 4.02 µM (active)

Q: Which IC50 [7] does the source give for `O=C(O)CCc1ccc(O)c(O)c1` [DIHYDROCAFFEIC ACID] here?
A: > 50 µM (not active)

Q: For `COc1ccc(N/N=C/c2c(C(=O)O)ccc3ccccc23)cc1`, which IC50 [8] is on record?
A: 37 µM (not active)

Q: What about the CC50 [9] of the same compound?
A: 0.364 µM (active)

Q: What about the AC50 [10] of the same compound?
A: 0.786 µM (active)

Q: What about the EC50 [11] of the same compound?
A: 9.27 µM (active)

Q: And the AC50 [12]?
A: 5.11 µM (active)

Q: And the IC50 [13]?
A: > 80 µM (inactive)

Q: What about the EC50 [14] of the same compound?
A: > 350 µM (not active)

Q: And the EC50 [15]?
A: 9.66 µM (active)

Q: What about the AC50 [16] of the same compound?
A: 4.56 µM (active)

Q: And the CC50 [17]?
A: 2 µM (active)

Q: And the CC50 [18]?
A: 4.9 µM (active)

Q: For `CCOC(=O)OCC1OC(c2ccccc2)C=CC1Oc1ccc(F)cc1C` (centres undefined), which AC50 [19] is on record?
A: 3.16 µM (inconclusive)
